In EP4733300A1, “NOVEL CHROMENE-BENZIMIDAZOLE DERIVATIVE OR PHARMACEUTICALLY ACCEPTABLE SALT THEREOF, AND USE THEREOF” (Korea University Research and Business Foundation, priority 2023, dated 2024):
Read-outs that look alike come from different tables or passages of the source. One block for each compound: values may come before it.

How the values were obtained:
MDA-MB-231 [1] = assay: MTS assay cell viability, MDA-MB-231; format: cell-based; settings: Homo sapiens, read-out: IC50 values according to the cell viability inhibition
Method: MDA-MB-231 (Cell seeding numbers: 0.8(M231) x 10^4 cells/wells (confluency ≧ 25%), which is a human triple-negative breast cancer (TNBC) cell line, and JIMT-1 (Cell seeding numbers: 0.8(JIMT) x 10^4 cells/wells (confluency ≧ 25%)), which is a HER2 positive breast cancer (HER2+ BC) cell line, were used in the experiment.
The above cell lines were cultured in Dulbecco's modified Eagle's medium (DMEM) containing 10% fetal bovine serum (FBS), streptomycin-penicillin (100 U/mL), and Fungizone (0.625 µg/mL) at 5% CO2 and 37°C.
(§1) The human breast cancer cell lines MDA-MB-231 and JIMT-1 were treated with chromene-benzimidazole derivatives of Formulas 1-1 to 1-53 at various concentrations of 0, 1, and 5 µM, respectively, for 72 hours, and then cell viability was measured using the MTS assay technique. In the MTS assay, cells were attached to a 96-well plate for 24 hours, treated with the chromene-benzimidazole derivative for 72 hours, developed with MTS (3-(4,5-dimethylthiazol-2-yl)-5-(3-carboxymethoxyphenyl)-2-(4-sulfophenyl)-2H-tetrazolium) for 4 hours, and then the absorbance was measured at 490 nm using a Spectramax Plus384 microplate analyzer.
(§2) After treating the triple-negative breast cancer cell lines MDA-MB-231 and BT549 with the chromene-benzimidazole derivative Compound (1-1) by concentration (0, 0.01, 0.05, 0.1, 0.5, 1, 5, 10, 20, and 40 µM) for 72 hours, concentration-dependent cell viability (MTS assay) inhibition and IC50 values according to the cell viability inhibition were confirmed and shown in FIGS. 7A and 7B.
The […] MDA-MB-231 and […] were treated with the chromene-benzimidazole derivative compounds (1-13, 1-19, and 1-22) by concentration (0, 0.01, 0.05, 0.1, 0.25, 0.5, 1, 2, and 5 µM) for 72 hours. Detailed treatment conditions were the same as disclosed in Example 2.1. Concentration-dependent cell viability (MTS assay) inhibition and IC50 values according to the cell viability inhibition were confirmed and shown in FIG. 9.
After treating the triple-negative breast cancer cell line MDA-MB-231 with the chromene-benzimidazole derivative compounds (1-9, 1-10, 1-11, 1-15, 1-16, and 1-17) by concentration (0, 0.01, 0.05, 0.1, 0.25, 0.5, 1, 2, and 5 µM) for 72 hours, concentration-dependent cell viability (MTS assay) inhibition and IC50 values according to the cell viability inhibition were confirmed and shown in FIG. 13. […]

BT549 [2] = assay: MTS assay cell viability, BT549; format: cell-based; settings: Homo sapiens, BT-549, 72 hours, read-out: IC50 values according to the cell viability inhibition
Method: as §1, §2

MDA-MB-231 [3] = assay: Morphological changes of cells by optical microscope, MDA-MB-231; format: cell-based, human; settings: 72 hours; for morphological changes of cells: 0.5 µM
Method: (§3) After treating the MDA-MB-231 and BT549 cell lines with the 1-1 compound by concentration (0, 5, 10, and 20 µM) for 72 hours, morphological changes of cells were observed using an optical microscope, which is shown in FIG. 7C.
Subsequently, an experiment was performed as follows to confirm the targeting ability for Compounds 1-13 and 1-22. After treating the MDA-MB-231 cell line with the 1-22 and 1-13 compounds at a concentration of 0.5 µM for 72 hours, morphological changes of cells were observed using an optical microscope, and micrographs are shown in FIG. 10A. […] In addition, after treating MDA-MB-231 with the 1-22 and 1-13 compounds at a concentration of 0.5 µM for 72 hours, expression of HSP90 chaperon complexes (HSP90, HSP70, HSP27, HSF-1), HSP90 client proteins (EGFR, AKT, JAK2, STAT3), Tubulin targeting ability (Tubulin, mitosis marker p-His H3), and apoptosis-related factors (Cleaved caspase-7, Survivin, Mcl-1) proteins was confirmed using a Western blot technique, which is shown in FIG. 10B.

BT549 [4] = assay: Morphological changes of cells by optical microscope, BT549; format: cell-based; settings: 0, 5, 10, and 20 µM, 72 hours
Method: as §3

MDA-MB-231 [5] = assay: Annexin V/PI staining flow cytometry, MDA-MB-231; format: cell-based, human
Source text: (§4) The degree of apoptosis of MDA-MB-231 and BT549 cells by the compound of Formula 1-1 was confirmed by a flow cytometer through Annexin V/PI staining, which is shown in FIG. 7D.

BT549 [6] = assay: Annexin V/PI staining flow cytometry, BT549; format: cell-based
Source text: as §4

[7] = tested on: C-terminal domain of Hsp90; assay: Hsp90 C-terminal activity by binding analysis with C recombinant protein; settings: compared to Novobiocin
Source text: In order to evaluate the ability to inhibit the C-terminal domain of Hsp90, it was attempted to evaluate the ability to inhibit Hsp90 C-terminal activity through analysis of binding force between the 1-1 compound, a C-terminal Hsp90 inhibitor Novobiocin, and an N-terminal inhibitor Onalespib, and a C recombinant protein.

[8] = tested on: STAT3, c-MET, ERK, and AKT; assay: Western blot of HSP90 client proteins in MDA-MB-231; format: cell-based, human; settings: 0, 5, 10, and 20 µM, 72 hours
tubulin = assay: Western blot of tubulin and apoptosis-related proteins in MDA-MB-231; format: cell-based, human; settings: 0, 5, 10, and 20 µM, 72 hours
Method: Subsequently, after treating the MDA-MB-231 cell line with the compound of Formula 1-1 by concentration (0, 5, 10, and 20 µM) for 72 hours, degradation of tubulin and expression of apoptosis-related proteins were confirmed by Western blot, which is shown in FIG. 8C.

BT549 [9] = assay: Propidium iodide DNA content flow cytometry (cell cycle), BT549; format: cell-based; settings: 0, 5, 10, and 20 µM, 72 hours
[10] = tested on: hematologic cancer cell line HL-60; assay: MTS assay cell viability, HL-60; format: cell-based; settings: 0, 0.1, 0.5, 1, 5, and 10 µM, 72 hours
Method: (§5) After treating a hematologic cancer cell line HL-60, a liver cancer cell line HepG2, a lung cancer cell line H1299, a colorectal cancer cell line HCT116, and an ovarian cancer cell line SKOV3 with the chromene-benzimidazole derivative compound 1-22 by concentration (0, 0.1, 0.5, 1, 5, and 10 µM) for 72 hours, concentration-dependent cell viability (MTS assay) inhibition and IC50 values according to the cell viability inhibition were confirmed and shown in FIG. 11.

[11] = tested on: liver cancer cell line HepG2; assay: MTS assay cell viability, HepG2; format: cell-based; settings: 0, 0.1, 0.5, 1, 5, and 10 µM, 72 hours
Method: as §5

[12] = tested on: lung cancer cell line H1299; assay: MTS assay cell viability, H1299; format: cell-based; settings: 0, 0.1, 0.5, 1, 5, and 10 µM, 72 hours
Method: as §5

[13] = tested on: colorectal cancer cell line HCT116; assay: MTS assay cell viability, HCT116; format: cell-based; settings: 0, 0.1, 0.5, 1, 5, and 10 µM, 72 hours
Method: as §5

[14] = tested on: ovarian cancer cell line SKOV3; assay: MTS assay cell viability, SKOV3; format: cell-based; settings: 0, 0.1, 0.5, 1, 5, and 10 µM, 72 hours
Method: as §5

[15] = MDA-MB-231 and JIMT-1 treated, cell line of the values not given, 72 hours

IC50 (MDA-MB-231 [1]; MDA-MB-231, 72 hours): 829 nM
Structure (SMILES): COc1c(NC(=O)Nc2ccc3[nH]c(-c4cccc(F)c4)nc3c2)ccc2c1C=CC(C)(C)O2 [Compound 1-10, 1-(2-(3-fluorophenyl)-1H-benzo[d]imidazol-5-yl)-3-(5-methoxy-2,2-dimethyl-2H-chromen-6-yl)urea]

IC50 (MDA-MB-231 [1]; [15]): 154 nM
Structure (SMILES): COc1c(NC(=O)Nc2ccc3[nH]c(-c4ccc(C#N)cc4)nc3c2)ccc2c1C=CC(C)(C)O2 [Compound 1-13, 1-(2-(4-cyanophenyl)-1H-benzo[d]imidazol-5-yl)-3-(5-methoxy-2,2-dimethyl-2H-chromen-6-yl)urea]
morphological changes of cells (MDA-MB-231 [3]): Typical morphological changes of cell cycle arrest and apoptosis
cell viability inhibition [10]: effective cell viability inhibition
cell viability inhibition [11]: effective cell viability inhibition
cell viability inhibition [12]: effective cell viability inhibition
cell viability inhibition [13]: effective cell viability inhibition
cell viability inhibition [14]: effective cell viability inhibition

IC50 (MDA-MB-231 [1]; [15]): 276 nM
Structure (SMILES): COc1c(NC(=O)Nc2ccc3[nH]c(-c4ccc(C)cc4)nc3c2)ccc2c1C=CC(C)(C)O2 [Compound 1-22, 1-(5-methoxy-2,2-dimethyl-2H-chromen-6-yl)-3-(2-(p-tolyl)-1H-benzo[d]imidazol-5-yl)urea]
morphological changes of cells (MDA-MB-231 [3]): Typical morphological changes of cell cycle arrest and apoptosis
cell viability inhibition [10]: effective cell viability inhibition
cell viability inhibition [11]: effective cell viability inhibition
cell viability inhibition [12]: effective cell viability inhibition
cell viability inhibition [13]: effective cell viability inhibition
cell viability inhibition [14]: effective cell viability inhibition

The next lines start with the compound.

Structure (SMILES): COc1c(NC(=O)Nc2ccc3[nH]c(Cl)nc3c2)ccc2c1C=CC(C)(C)O2 [Compound 1-1, 1-(2-chloro-1H-benzo[d]imidazol-5-yl)-3-(5-methoxy-2,2-dimethyl-2H-chromen-6-yl)urea]
IC50 (MDA-MB-231 [1]; MDA-MB-231, 72 hours): 5660 nM
IC50 (BT549 [2]): 8490 nM
morphological changes of cells (apoptosis) (MDA-MB-231 [3]; 0, 5, 10, and 20 µM): apoptosis was induced in a concentration-dependent manner
morphological changes of cells (apoptosis) (BT549 [4]): apoptosis was induced in a concentration-dependent manner
degree of apoptosis (MDA-MB-231 [5]): early and late apoptosis were induced
degree of apoptosis (BT549 [6]): early and late apoptosis were induced
C-terminal HSP90 activity [7]: lowered C-terminal HSP90 activity to less than half compared to the existing Novobiocin
protein expression and phosphorylation of HSP90 client proteins [8]: decreases in protein expression and phosphorylation of STAT3, c-MET, ERK, and AKT
degradation of tubulin / tubulin polymerization reaction (tubulin): could inhibit a tubulin polymerization reaction
cell cycle (DNA content) (BT549 [9]): G2/M phase cell cycle arrest

Structure (SMILES): COc1c(NC(=O)Nc2ccc3[nH]c(-c4ccc(F)cc4)nc3c2)ccc2c1C=CC(C)(C)O2 [Compound 1-9, 1-(2-(4-fluorophenyl)-1H-benzo[d]imidazol-5-yl)-3-(5-methoxy-2,2-dimethyl-2H-chromen-6-yl)urea]
IC50 (MDA-MB-231 [1]; MDA-MB-231, 72 hours): 273 nM

Structure (SMILES): COc1c(NC(=O)Nc2ccc3[nH]c(-c4ccc(Cl)cc4)nc3c2)ccc2c1C=CC(C)(C)O2 [Compound 1-11, 1-(2-(4-chlorophenyl)-1H-benzo[d]imidazol-5-yl)-3-(5-methoxy-2,2-dimethyl-2H-chromen-6-yl)urea]
IC50 (MDA-MB-231 [1]; MDA-MB-231, 72 hours): 335 nM

Structure (SMILES): COc1ccc(-c2nc3cc(NC(=O)Nc4ccc5c(c4OC)C=CC(C)(C)O5)ccc3[nH]2)cn1 [Compound 1-15, 1-(5-methoxy-2,2-dimethyl-2H-chromen-6-yl)-3-(2-(6-methoxypyridin-3-yl)-1H-benzo[d]imidazol-5-yl)urea]
IC50 (MDA-MB-231 [1]; MDA-MB-231, 72 hours): 452 nM

Structure (SMILES): COc1c(NC(=O)Nc2ccc3[nH]c(-c4ccc(N(C)C)cc4)nc3c2)ccc2c1C=CC(C)(C)O2 [Compound 1-16, 1-(2-(4-(dimethylamino)phenyl)-1H-benzo[d]imidazol-5-yl)-3-(5-methoxy-2,2-dimethyl-2H-chromen-6-yl)urea]
IC50 (MDA-MB-231 [1]; MDA-MB-231, 72 hours): 960 nM

Structure (SMILES): COc1cc(-c2nc3cc(NC(=O)Nc4ccc5c(c4OC)C=CC(C)(C)O5)ccc3[nH]2)cc(OC)c1OC [Compound 1-17, 1-(5-methoxy-2,2-dimethyl-2H-chromen-6-yl)-3-(2-(3,4,5-trimethoxyphenyl)-1H-benzo[d]imidazol-5-yl)urea]
IC50 (MDA-MB-231 [1]; MDA-MB-231, 72 hours): 586 nM

Structure (SMILES): COc1c(NC(=O)Nc2ccc3[nH]c(-c4ccc(F)cc4F)nc3c2)ccc2c1C=CC(C)(C)O2 [Compound 1-19, 1-(2-(2,4-difluorophenyl)-1H-benzo[d]imidazol-5-yl)-3-(5-methoxy-2,2-dimethyl-2H-chromen-6-yl)urea]
IC50 (MDA-MB-231 [1]; [15]): 1060 nM
